Experimental data from ChEMBL document CHEMBL1156080, “Small molecule inhibitors of Myc/Max dimerization and Myc-induced cell transformation” (Bioorg Med Chem Lett, 2009).
Activity calls are given as the source filed them. The rule behind the calls is not given here.

Key:
[1] = target: Proto-oncogene tyrosine-protein kinase Src (Gallus gallus) (UniProt P00523); assay: Inhibition of Src-mediated oncogenic transformation in chicken embryo fibroblasts
[2] = target: Transcription factor Jun (Gallus gallus) (UniProt P18870); assay: Inhibition of Jun-mediated oncogenic transformation in chicken embryo fibroblasts
[3] = Inhibition of Myc/Max heterodimerization at 20 uM by FRET assay
Gallus gallus = species: Gallus gallus; assay: Inhibition of Myc/Max heterodimerization in chicken embryo fibroblasts assessed as inhibition of oncogenically transformed cell foci formation at 20 uM
[4] = Cytotoxicity against chicken embryo fibroblasts; design: species or system Gallus gallus

Sequence of Transcription factor Jun (Gallus gallus) (P18870 whole entry): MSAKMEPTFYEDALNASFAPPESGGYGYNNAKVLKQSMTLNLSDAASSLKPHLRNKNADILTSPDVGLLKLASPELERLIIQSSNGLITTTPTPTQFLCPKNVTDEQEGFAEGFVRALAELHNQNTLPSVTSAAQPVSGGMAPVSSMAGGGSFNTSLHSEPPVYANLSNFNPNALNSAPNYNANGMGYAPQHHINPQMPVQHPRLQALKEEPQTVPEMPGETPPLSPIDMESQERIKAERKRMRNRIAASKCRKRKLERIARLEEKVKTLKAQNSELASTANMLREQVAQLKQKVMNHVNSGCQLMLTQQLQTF

SMILES: CNC(=O)[C@@H]1CN(C(=O)CCCCCNC(=O)OC(C)(C)C)C[C@H]1C(=O)NC[C@H](NS(=O)(=O)CCc1cccc2ccccc12)C(=O)OC(C)(C)C
- inhibition [1]: inactive
- inhibition [2]: inactive
- inhibition [3]: 24%
- inhibition (Gallus gallus): Active

SMILES: CNC(=O)[C@@H]1CN(C(=O)CCC2CCN(C(=O)OC(C)(C)C)CC2)C[C@H]1C(=O)NC[C@H](NS(=O)(=O)CCc1cccc2ccccc12)C(=O)OC(C)(C)C
- inhibition [1]: inactive
- inhibition [2]: inactive
- inhibition [3]: 43%
- inhibition (Gallus gallus): Active

SMILES: CNC(=O)[C@@H]1CN(C(=O)CCCNC(=O)OC(C)(C)C)C[C@H]1C(=O)NC[C@H](NS(=O)(=O)c1cc(Cl)sc1Cl)C(=O)OC(C)(C)C
- inhibition [1]: inactive
- inhibition [2]: inactive
- inhibition [3]: 8%
- inhibition (Gallus gallus): Active

SMILES: Cc1cc(C)c(S(=O)(=O)N[C@@H](CNC(=O)[C@@H]2CN(C(=O)CC3CCN(C(=O)OC(C)(C)C)CC3)C[C@H]2C(=O)O)C(=O)OC(C)(C)C)c(C)c1 [MYCMYCIN 1]
- inhibition [1]: inactive
- Activity [4]: Non-toxic
- inhibition [3]: 66%
- inhibition (Gallus gallus): Active

SMILES: CN(C)c1cccc2c(S(=O)(=O)N[C@@H](CNC(=O)[C@@H]3CN(C(=O)CCC4CCN(C(=O)OC(C)(C)C)CC4)C[C@H]3C(=O)O)C(=O)OC(C)(C)C)cccc12
- inhibition [1]: inactive
- inhibition [2]: inactive
- inhibition [3]: 75%
- inhibition (Gallus gallus): Active

SMILES: CNC(=O)[C@@H]1CN(C(=O)CCC2CCN(C(=O)OC(C)(C)C)CC2)C[C@H]1C(=O)NCCC(=O)OC(C)(C)C
- inhibition [1]: inactive
- inhibition [2]: inactive
- inhibition [3]: 30%
- inhibition (Gallus gallus): Active

SMILES: CCCCS(=O)(=O)N[C@@H](CNC(=O)[C@@H]1CN(C(=O)CCCCCNC(=O)OC(C)(C)C)C[C@H]1C(=O)O)C(=O)OC(C)(C)C
- inhibition [1]: inactive
- inhibition [2]: inactive
- inhibition [3]: 72%
- inhibition (Gallus gallus): Active

SMILES: CNC(=O)[C@@H]1CN(C(=O)CCCCCNC(=O)OC(C)(C)C)C[C@H]1C(=O)NC[C@H](NS(=O)(=O)c1cc(Cl)sc1Cl)C(=O)OC(C)(C)C [MYCMYCIN 2]
- Activity [4]: Non-toxic
- inhibition [2]: inactive
- inhibition [3]: 18%
- inhibition (Gallus gallus): Active
